Values quoted from earlier work in patent EP0743854B1, “ANTI-TUMOUR MEDICAL P[…] THE BASIS OF C[…] THE METHOD OF ITS PRODUCTION” (PLIVA, pharmaceutical industry incorporated, priority 1994, dated 1995).

Conditions: lyophylized injection dissolved in water and other aqueous solutions (sodium chloride, glucose, dextrose)

SMILES: N.N.O=C([O-])C1(C(=O)[O-])CCC1.[Pt+2] [carboplatin, cis-diammine-1,1-cyclobutanedicarboxylate platinum (II)]
- stability of solution: stable and therefore therapeutically useful for only few hours, at most few days under lower temperature
